In assay [1] the test system is metabolism of retinoic acid in human breast cancer cells. Description: Inhibition of retinoic acid (RA) metabolism (Example C.1). To be noted: MCF-7 human breast cancer cells, 3H-RA as substrate, concentration needed to reduce the amount of metabolites to 50% of the control. The assay is classed as cell-based. In short, it runs like this: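 MCF-7 cells, pre-stimulated with RA the day before, incubated with ³H-RA substrate and test compound in 1% DMSO. Polar ³H-metabolites separated from unmetabolized RA and counted by scintillation. IC50 is the concentration cutting metabolite formation to 50% of control, with blank run alongside.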

For assay [2], the system named is Ovariectomized rats. Description: Vaginal keratinization test on ovariectomized rats (Example C.2). The assay is classed as in vivo. As to conditions: estradiol undecylate induced keratinization, per os once daily on days 1-3, active dose = 50% of rats show complete suppression. In short, it runs like this:
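Ovariectomized rats given s.c. estradiol undecylate (100 μg per 100 g body weight in sesame oil), then oral compound once daily on days 1-3 (vehicle PEG 200). Vaginas assessed histologically one day after last dose; lowest active dose (mg/kg) is the dose giving complete keratinization suppression in 50% of rats.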

The record followed here is US7179825B2, “Retinoic acid mimetic anilides” (Janssen Pharmaceutica N.V., priority 1997, dated 2007).

On to `COc1cc(CC(=O)Nc2ccc(C(C(C)C)n3ccnc3)cc2)ccc1O` (stereo not shown) [Compound 142], for which the half-inhibitory concentration (IC50) in assay [1] came out at 31.1 nM. The “LAD (lowest active dose)” value in assay [2] turned out to be 5.00 mg/kg.

As to `CCC(CC)C(c1ccc(NC(=O)C(O)c2ccc(Cl)cc2)cc1)n1cncn1` (single isomer, unassigned) [Compound 21], the IC50 in assay [1] amounted to 2.89 nM. Moreover, in assay [2], the “LAD (lowest active dose)” value was 5.00 mg/kg.

Take `O=C(Cc1ccc(Cl)cc1)Nc1ccc(C(c2cccc(C(F)(F)F)c2)n2ccnc2)cc1` (stereo not shown) [Compound 361]: in assay [1], the IC50 was greater than 100 nM. Besides, the “LAD (lowest active dose)” value in assay [2] came to 10.00 mg/kg.

As for `C/C(=C\c1ccc([N+](=O)[O-])cc1)C(=O)Nc1ccc(C(C(C)C)n2ccnc2)cc1` (racemic) [Compound 610], the IC50 in assay [1] came out at 6.53 nM. Also, the “LAD (lowest active dose)” value in assay [2] was greater than 10.00 mg/kg.

Regarding `CC(=Cc1ccccc1)C(=O)Nc1ccc(C(C(C)Sc2ccccc2)n2ccnc2)cc1` (single isomer, unassigned) [Compound 484], in assay [1], the IC50 is 3.43 nM. In addition, the “LAD (lowest active dose)” value in assay [2] is reported as greater than 5.00 mg/kg.

Regarding `C/C(=C\c1ccco1)C(=O)Nc1ccc(C(C(C)C)n2ccnc2)cc1` (racemic) [Compound 594], the IC50 in assay [1] stood at 4.81 nM. Further, in assay [2], the “LAD (lowest active dose)” value is greater than 10.00 mg/kg.

Take `CC(C)C(c1ccc(NC(=O)Nc2ccncc2)cc1)n1ccnc1` (racemic) [Compound 275]: in assay [1], the IC50 was 4.28 nM. In addition, in assay [2], the “LAD (lowest active dose)” value is recorded as greater than 10.00 mg/kg.

`CCC(CC)C(c1ccc(NC(=O)Cc2ccc(C)cc2)cc1)n1cncn1` (racemic) [Compound 65]: in assay [1], the IC50 came out at 0.379 nM. Also, the “LAD (lowest active dose)” value in assay [2] was 5.00 mg/kg.

As for `O=C(Cc1ccccc1)Nc1ccc(C(c2cccc(C(F)(F)F)c2)n2cncn2)cc1` (racemic) [Compound 614], the IC50 in assay [1] came to 278 nM. Moreover, the “LAD (lowest active dose)” value in assay [2] was greater than 20.00 mg/kg.

As for `CC(C)C(c1ccc(NC(=S)Nc2ccccc2F)cc1)n1ccnc1` (racemic) [Compound 700], the IC50 in assay [1] came out at 12 nM. Further, the “LAD (lowest active dose)” value in assay [2] came out at 5.00 mg/kg.

As for `C/C(=C\c1ccccc1)C(=O)Nc1ccc(C(C(C)C)n2ccnc2)cc1` (single isomer, unassigned) [Compound 458], the IC50 in assay [1] was determined as 3.22 nM. In assay [2], the “LAD (lowest active dose)” value is 5.00 mg/kg.

As to `CCC(C)C(c1ccc(NC(=O)Cc2ccc(O)c(OC)c2)cc1)n1ccnc1` (stereo not shown) [Compound 432], in assay [1], the IC50 was 0.81 nM. In assay [2], the “LAD (lowest active dose)” value is greater than 2.50 mg/kg.

As to `CC/C(=C(\C)C(=O)Nc1ccc(C(C(C)C)n2ccnc2)cc1)c1ccccc1` (stereo not shown) [Compound 203], in assay [1], the IC50 was 22.8 nM. For the same molecule, the “LAD (lowest active dose)” value in assay [2] is reported as greater than 10.00 mg/kg.

With `CC(C)C(=O)Nc1ccc(C(C(C)C)n2ccnc2)cc1` (racemic) [Compound 209], the IC50 in assay [1] was determined as 8.27 nM. Also, the “LAD (lowest active dose)” value in assay [2] came to 5.00 mg/kg.

Regarding `CCC(CC)C(c1ccc(NC(=O)Cc2ccc(OC)c(C)c2)cc1)n1cncn1` (single isomer, unassigned) [Compound 86], the IC50 in assay [1] is 0.497 nM. Also, the “LAD (lowest active dose)” value in assay [2] is given as 2.50 mg/kg.

For `CCC(CC)C(c1ccc(NC(=O)Cc2ccc(F)cc2)cc1)n1ccnc1` (racemic) [Compound 88], the IC50 in assay [1] came to 0.148 nM. Moreover, the “LAD (lowest active dose)” value in assay [2] is on record as 2.50 mg/kg.

Consider `C/C(=C\c1ccc(N)cc1)C(=O)Nc1ccc(C(C(C)C)n2ccnc2)cc1` (racemic) [Compound 611, (±)-(E)-2-[(4-aminophenyl)methylene]-N-[4-[1-(1H-imidazol-1-yl)-2-methylpropyl]phenyl]propanamide], for which the IC50 in assay [1] (MCF7) turned out to be 3.42 nM. Also, in assay [2] (Rattus norvegicus, po, read-out: LAD (lowest active dose)), the minimal effective dose was 10 mg/kg.

For `C/C(=C\c1ccc2ccccc2c1)C(=O)Nc1ccc(C(C(C)C)n2ccnc2)cc1` (racemic) [Compound 591], in assay [1], the IC50 came out at 40.1 nM. For the same molecule, the “LAD (lowest active dose)” value in assay [2] is on record as greater than 10.00 mg/kg.

For `CCC(CC)C(c1ccc(NC(=O)Cc2cccc(O)c2)cc1)n1cncn1` (racemic) [Compound 67], the IC50 in assay [1] is 0.334 nM. Moreover, in assay [2], the “LAD (lowest active dose)” value was determined as 2.50 mg/kg.

Consider `CC(C)C(c1ccc(NC(=O)/C=C/c2ccccc2)cc1)n1ccnc1` (racemic) [Compound 502], for which the 50% inhibitory concentration (IC50) in assay [1] turned out to be 32.9 nM. For the same molecule, the “LAD (lowest active dose)” value in assay [2] turned out to be 5.00 mg/kg.

For `CC(C)C(c1ccc(NC(=O)c2cccs2)cc1)n1ccnc1` (stereo not shown) [Compound 187], the IC50 in assay [1] worked out at 18.8 nM. The “LAD (lowest active dose)” value in assay [2] is greater than 10.00 mg/kg.

Regarding `CCC(CC)C(c1ccc(NC(=O)Cc2ccc(OC)c(C)c2)cc1)n1ccnc1` (racemic) [Compound 123], the IC50 in assay [1] is 0.0247 nM. In assay [2], the “LAD (lowest active dose)” value came to 2.50 mg/kg.

Regarding `CCC(c1ccc(NC(=O)C(C)=Cc2ccccc2)cc1)(C(C)C)n1ccnc1` (stereo not shown) [Compound 758], the IC50 in assay [1] worked out at 1.88 nM. In addition, in assay [2], the “LAD (lowest active dose)” value was greater than 5.00 mg/kg.

As for `Cc1nccn1C(c1ccc(NC(=O)Cc2ccc(Cl)cc2)cc1)C(C)C` (stereo not shown) [Compound 695], the IC50 in assay [1] is greater than 100 nM. In addition, the “LAD (lowest active dose)” value in assay [2] is greater than 10.00 mg/kg.

In the case of `COc1ccc(CC(=O)Nc2ccc(C(C(C)C)n3ccnc3)cc2)cc1` (stereo not shown) [Compound 662], the IC50 in assay [1] is 0.358 nM. In addition, in assay [2], the “LAD (lowest active dose)” value is recorded as 5.00 mg/kg.

For the molecule `Cc1cccc(NC(=O)Nc2ccc(C(C(C)C)n3ccnc3)cc2)c1` (racemic) [Compound 736], the IC50 in assay [1] is 7.45 nM. Further, the “LAD (lowest active dose)” value in assay [2] was greater than 10.00 mg/kg.

For `C/C(=C\c1ccccc1)C(=O)Nc1ccc(C(CC(C)C)n2ccnc2)cc1` (racemic) [Compound 474], the IC50 in assay [1] came out at 15.9 nM. The “LAD (lowest active dose)” value in assay [2] is recorded as greater than 10.00 mg/kg.

As to `CC(C)C(c1ccc(NC(=O)CC2COc3ccccc3O2)cc1)n1ccnc1` (racemic) [Compound 237], in assay [1], the IC50 came out at 18.2 nM. Besides, in assay [2], the “LAD (lowest active dose)” value is reported as 5.00 mg/kg.

For `CC(C)C(c1ccc(NC(=O)Nc2ccccc2F)cc1)n1ccnc1` (racemic) [Compound 726], the half-maximal inhibitory concentration (IC50) in assay [1] was determined as 3.71 nM. For the same molecule, the “LAD (lowest active dose)” value in assay [2] is reported as 5.00 mg/kg.

As for `CC(C)C(c1ccc(NC(=O)Cc2ccc(Cl)cc2)cc1)n1ccnc1` (stereo not shown) [Compound 651], the half-inhibitory concentration (IC50) in assay [1] was determined as 10.5 nM. In addition, the “LAD (lowest active dose)” value in assay [2] turned out to be 5.00 mg/kg.

With `CC(C)C(c1ccc(NC(=O)Nc2cc(F)ccc2F)cc1)n1ccnc1` (racemic) [Compound 728], the IC50 in assay [1] was 1.41 nM. Also, the “LAD (lowest active dose)” value in assay [2] came out at 5.00 mg/kg.

Take `CC(=Cc1cccc(Cl)c1)C(=O)Nc1ccc(C(C(C)C)n2cncn2)cc1` (racemic) [Compound 156]: in assay [1], the half-inhibitory concentration (IC50) was 31 nM. In addition, in assay [2], the “LAD (lowest active dose)” value is recorded as greater than 10.00 mg/kg.

For the molecule `CC(C)C(c1ccc(NC(=O)c2cccc3c2OCCO3)cc1)n1ccnc1` (racemic) [Compound 230], the IC50 in assay [1] was 3.89 nM. Further, the “LAD (lowest active dose)” value in assay [2] was greater than 10.00 mg/kg.

Regarding `CCC(CC)C(c1ccc(NC(=O)C(C)(C)O)cc1)n1ccnc1` (racemic) [Compound 24], the IC50 in assay [1] turned out to be 1.37 nM. The “LAD (lowest active dose)” value in assay [2] turned out to be 2.50 mg/kg.

Consider `CCC(CC)C(c1ccc(NC(=O)Cc2ccc(OCc3ccccn3)cc2)cc1)n1ccnc1` (racemic) [Compound 121], for which the IC50 in assay [1] is 0.914 nM. For the same molecule, in assay [2], the “LAD (lowest active dose)” value was greater than 2.50 mg/kg.

`COc1cc(CC(=O)Nc2ccc(C(C(C)C)n3cncn3)cc2)ccc1O` (stereo not shown) [Compound 138]: the IC50 in assay [1] was 6.38 nM. In assay [2], the “LAD (lowest active dose)” value is greater than 5.00 mg/kg.

With `CC(C)C(c1ccc(NC(=O)c2cccc3ccccc23)cc1)n1ccnc1` (stereo not shown) [Compound 182], the IC50 in assay [1] was found to be 13.1 nM. For the same molecule, in assay [2], the “LAD (lowest active dose)” value is reported as 10.00 mg/kg.

Turning to `CC(C)C(c1ccc(NC(=O)c2ccc3nccnc3c2)cc1)n1ccnc1` (stereo not shown) [Compound 214], the IC50 in assay [1] turned out to be 3.37 nM. In addition, the “LAD (lowest active dose)” value in assay [2] was determined as 20.00 mg/kg.

Turning to `CCC(CC)C(c1ccc(NC(=O)Cc2ccc(Cl)cc2)cc1)n1cncn1` (racemic) [Compound 66], in assay [1], the IC50 is 0.356 nM. Further, the “LAD (lowest active dose)” value in assay [2] turned out to be 2.50 mg/kg.

For the molecule `CCOc1ccc(CC(=O)Nc2ccc(C(C(CC)CC)n3cncn3)cc2)cc1` (racemic) [Compound 71], the IC50 in assay [1] turned out to be 0.262 nM. Moreover, the “LAD (lowest active dose)” value in assay [2] is greater than 5.00 mg/kg.

For the molecule `CCCCC(=CC(=O)Nc1ccc(C(c2ccc(Cl)cc2)n2ccnc2)cc1)c1ccccc1` (racemic) [Compound 513], the IC50 in assay [1] was determined as 860 nM. Also, the “LAD (lowest active dose)” value in assay [2] is given as greater than 20.00 mg/kg.

For the molecule `CC(C)C(c1ccc(NC(=O)C(c2ccccc2)C2CCCC2)cc1)n1ccnc1` (mixture of isomers) [Compound 659], in assay [1], the IC50 is greater than 100 nM. For the same molecule, in assay [2], the “LAD (lowest active dose)” value is on record as greater than 10.00 mg/kg.

With `C/C=C(\C)C(=O)Nc1ccc(C(C(C)C)n2ccnc2)cc1` (racemic) [Compound 574], the half-maximal inhibitory concentration (IC50) in assay [1] was 1.78 nM. In addition, the “LAD (lowest active dose)” value in assay [2] amounted to 20.00 mg/kg.

Consider `CC(C)C(c1ccc(NC(=O)c2ccco2)cc1)n1ccnc1` (racemic) [Compound 169], for which the IC50 in assay [1] turned out to be 0.531 nM. The “LAD (lowest active dose)” value in assay [2] is given as 10.00 mg/kg.

For the molecule `O=C(C=C(c1ccccc1)c1ccccc1)Nc1ccc(C(c2ccc(Cl)cc2)c2ccccn2)cc1` (stereo not shown) [Compound 680], in assay [1], the IC50 stood at 12.1 nM. Besides, the “LAD (lowest active dose)” value in assay [2] is reported as greater than 20.00 mg/kg.

Regarding `C/C(=C\c1ccc(F)cc1)C(=O)Nc1ccc(C(C(C)C)n2cncn2)cc1` (racemic) [Compound 157], the IC50 in assay [1] was 84.8 nM. The “LAD (lowest active dose)” value in assay [2] is listed as greater than 10.00 mg/kg.

For `Cc1ccc(CC(=O)Nc2ccc(C(C(C)C)n3cncn3)cc2)cc1` (stereo not shown) [Compound 133], the IC50 in assay [1] worked out at 4.56 nM. Further, the “LAD (lowest active dose)” value in assay [2] is given as greater than 5.00 mg/kg.

In general, IC50 refers to the concentration that gives 50% inhibition.
